Series [1] is described as follows: Inhibition of proliferation (MTC), CEM cells. The format is cell-based. The conditions noted are these: human, highest concentration tested. The method, then:
Inhibitory effects of MMdCyd on the proliferation of murine and human tumor cells was also investigated. MTC for MMdCyd was greater than 400 μg/ml (highest concentration tested) against Raji, MOLT/4F, MT4, CEM and H-9 (human) and L1210 (murine Leukemia) cells.

The subject of series [2] is Herpes simplex virus type 1 (HSV-1). The series can be described thus: Antiviral activity against HSV-1, viral plaque reduction (ED50). It is filed as cell-based. The protocol: Infected cells were treated with different concentrations of MMdCyd and the concentration required to reduce viral plaque formation by 50%, i.e. ED50, was determined.
^a ED50 : Concentration required to reduce viral plaque formatio
Vero cells were infected with the KOS strain of HSV-1. The compound of compounds indicated in Table 2, below, and are shown graphically in FIGS. 1, (H4 dUrd) and 2 (H4 Urd).
^a Antiviral assays were carried out using Vero cells. All compounds
were added immediately after virus infection.
The antiviral activity of MMdCyd in the presence of H4 dUrd was determined against several strains of HSV-1 and HSV-2.
Vero cells were infected with HSV-1, strain 76 and treated with MMdCyd at different times post virus infection.
The antiviral activity, ^a cyctotoxicity* and antiviral indices of MMdCyd in the presence of H4 dUrd, dGuo and H4 dUrd+dGuo were determined.
^a Antiviral assays were carried out using Vero cells. Compounds were
added immediately after virus infection. Virus HSV1, strains KOS and 76;
KOS, virus input = 50 PFU

The values below come from patent publication US4990499A, “Anti-herpes simplex virus activity of 5-alkoxymethyl-2'-deoxycytidimes and their 5-monophosphates” (priority 1989, dated 1991).

In brackets after ≈: the same amount, converted by molar mass. Where two headings read alike, the source gives them in different places.

The compound `COCc1cn([C@H]2C[C@H](O)[C@@H](CO)O2)c(=O)nc1N` [MMdCyd, 5-methoxymethyl-2'-deoxycytidine] displayed an MCC in series [1] above 400 µg/mL. For the same compound, the ED50 in series [2] was 6 to 12 µg/mL; in series [2] (FIG. 6, after preincubating cells 3 hours with 25 μm dUrd, then washing) it was 21 µg/mL (≈ 77.4 µM); in series [2] (FIG. 6, with 25 μM dUrd added simultaneously), 38 µg/mL (≈ 140 µM). The EC50 in series [2] (HSV-1 76, Vero, 50 PFU, added 4 hours post infection, read-out: ED50 (the source's name)) was 28 µM; in series [2] (HSV-1 76, Vero, 50 PFU, added 6 hours post infection, read-out: ED50 (the source's name)), 32 µM; in series [2] (HSV-1 (strain cell empty, under NAH), RK-13, 10 PFU, read-out: ED50 (the source's name)), 3 µM; in series [2] (HSV-1, Vero and HEP-2 cells, read-out: ED50 (the source's name)), 14 to 26 µM; in series [2] (HSV-1 KOS, Vero, 20 PFU, read-out: ED50 (the source's name)), 14 µM; in series [2] (HSV-1 KOS, Vero, 50 PFU, read-out: ED50 (the source's name)), 26 µM. Further, the EC50 in series [2] (HSV-1 NAH, Vero, 50 PFU, read-out: ED50 (the source's name)) is 66 µM; in series [2] (read-out: ED50, HSV-1 TK, Vero, 10 PFU, highest concentration tested), above 833 µM; in series [2] (read-out: ED50, HSV-1 TK, Vero, 50 PFU, highest concentration tested), above 833 µM. Also, the “activity against thymidine kinase negative strain” value in series [2] (HSV--TK^-) is recorded as “lack of activity”. The “ED50, average value” in series [2] (Table 11, Vero, HSV-1 KOS and 76, 50-100 PFU, H4 dUrd 12 μg/ml, dGuo 25-30 μg/ml, average) is 8 µg/mL (≈ 29.5 µM). Moreover, the “A.I (antiviral index, MTC divided by ED50)” value in series [2] (monkey, vero cells) is on record as above 125. The antiherpes activity entry in series [2] (summary statement) is “potent and selective antiherpes agent”. The “ED50 on delayed treatment compared with one hour post virus infection” value in series [2] (treatment delayed 4 to 6 hours post infection) is “essentially similar”.
